Like-named read-outs stand apart in the source and are kept apart here. Where only a bound is given, the exact number is not on record here.

The text below walks through data of paper PMC5084761, “Crisaborole Topical Ointment, 2% in Patients Ages 2 to 17 Years with Atopic Dermatitis: A Phase 1b, Open‐Label, Maximal‐Use Systemic Exposure Study” (Pediatric Dermatology, 2016).

The conditions of data set [1]: in vivo.
Text: (§1) This was a phase 1b, multicenter, open‐label, maximal‐use study of crisaborole topical ointment, 2% applied twice daily (BID). The study included a PK and safety phase (dose application in clinic from day 1 through the morning dose on day 9) and a non‐PK safety phase (at‐home dose application from the evening dose on day 9 through day 28). […] The primary objective was to evaluate the systemic exposure, PK, and safety of crisaborole topical ointment, 2% when applied under maximal‐use conditions in children and adolescents 2 to 17 years of age.
(§2) Crisaborole topical ointment, 2% was applied BID to all treatable AD‐affected areas at an intended dose of 3 mg/cm^2. The per‐application dosage was calculated in grams at baseline for each patient based on total body surface area (BSA) and treatable percentage of BSA (percentage of AD‐involved skin excluding scalp and venous access areas). During the PK phase, the per‐application dosage remained fixed at the baseline level and was applied BID, with the evening application occurring 8 to 12 hours after the morning application.
(§3) The primary study endpoints were PK and safety of crisaborole topical ointment, 2% under maximal‐use conditions. PK profiles were developed for crisaborole and its major oxidative metabolites AN7602 and AN8323 based on plasma samples obtained on days 1 and 8. Calculated PK parameters included area under the curve (AUC), maximum plasma concentration (C max), time to C max (T max), and terminal half‐life (t 1/2), assessed on days 1 and 8.
(§4) Plasma PK samples were evaluated for crisaborole, AN7602, and AN8323 using a validated high‐performance liquid chromatography tandem mass spectrometry assay and analyzed using analysis of variance (ANOVA). Descriptive PK parameters were determined using standard noncompartmental methods based on concentration‐versus‐time curves for each patient.
(§5) If no statistically significant differences were observed using this model, the PK analysis was performed for all study patients.
Data set [2] is described as follows: Plasma pharmacokinetics after topical application of crisaborole topical ointment, 2% BID under maximal-use conditions (HPLC tandem mass spectrometry, noncompartmental). Conditions: for Cmax: 3 mg/cm^2, C max.
Text: as §1, §2, §3, §4, §5
The subject of data set [3] is children and adolescents with mild to moderate AD. As to the kind of experiment: Efficacy: ISGA, treatment success, AD signs and symptoms, treatable percentage of BSA. The format is in vivo, human (patients ages 2 to 17 years). Conditions: for Percentage change from baseline in treatable percentage of BSA, mean ± SD: after 4 wks. As for the experimental part:
Secondary assessments included treatment success, defined as an Investigator Static Global Assessment (ISGA) score of 1 or less (clear or almost clear) with a two‐grade improvement or more from baseline. The proportion of patients achieving an ISGA of 0 (clear) or 1 (almost clear) was also assessed. Improvement from baseline in AD signs and symptoms of erythema, excoriation, exudation, lichenification, and pruritus was evaluated using a 4‐point scale ranging from 0 (none) to 3 (severe). Efficacy assessments were conducted at baseline and days 5, 8, 15, 22, and 29. Change from baseline in treatable percentage of BSA was assessed at day 29 and included all AD lesions identified at baseline.

For `N#Cc1ccc(Oc2ccc(O)c(CO)c2)cc1` [AN7602], in data set [1], the “systemic exposure (in words)” value is reported as “minimal”.

Consider `N#Cc1ccc(Oc2ccc3c(c2)COB3O)cc1` [Crisaborole, crisaborole], for which, in data set [2] (human, plasma, topical, 3 mg/cm^2), the Tmax came to 3 h. For the same compound, the AUC(0-t) in data set [2] (human, plasma, topical, 3 mg/cm^2, AUC0–12, mean ± SD, plasma, day 1, all patients (n = 32)) stood at 759 ± 730 ng·h/mL; in data set [2] (human, plasma, topical, 3 mg/cm^2, AUC0–12, mean ± SD, plasma, day 8, all patients (n = 32)) it was 949 ± 1240 ng·h/mL; in data set [2] (human, plasma, topical, 3 mg/cm^2, AUC0–24, mean ± SD, plasma, day 1, all patients (n = 29)) it was 833 ± 694 ng·h/mL; in data set [2] (human, plasma, topical, 3 mg/cm^2, AUC0–24, mean ± SD, plasma, day 8, all patients (n = 32)) it was 1320 ± 1330 ng·h/mL; in data set [2] (human, plasma, topical, 3 mg/cm^2, AUC0–T, mean ± SD, plasma, day 1, all patients (n = 34)), 863 ± 759 ng·h/mL; in data set [2] (human, plasma, topical, 3 mg/cm^2, AUC0–T, mean ± SD, plasma, day 8, all patients (n = 33)) it was 1320 ± 1310 ng·h/mL. The Cmax in data set [2] (human, plasma, topical, mean ± SD, plasma, day 1, all patients (n = 34)) stood at 111 ± 113 ng/mL; in data set [2] (human, plasma, topical, mean ± SD, plasma, day 8, all patients (n = 33)) it was 127 ± 196 ng/mL. Besides, the “systemic exposure (in words)” value in data set [2] (maximal-use conditions, increased with treatable percentage of BSA) is “minimal”. The “systemic accumulation in plasma (in words)” value in data set [2] (over 8 days of dosing) is recorded as “minimal systemic accumulation”. Further, in data set [2] (plasma, BID dosing), the “time by which steady state was reached” value is at most 8 days. Besides, in data set [2] (plasma, day 1, all patients (n = 34), ointment 2% at 3 mg/cm^2), the “T max, median (range)” value was 3.00 (3–12) hours. Further, the “Percentage change from baseline in treatable percentage of BSA, mean ± SD” value in data set [3] (cohort 1) is listed as −86.6 ± 18.6 percentage; in data set [3] (cohort 2), −72.8 ± 24.4 percentage; in data set [3] (cohort 3) it was −73.0 ± 21.7 percentage; in data set [3] (total (N = 34)) it was −77.7 ± 22.1 percentage. Further, the “Day 29 treatable percentage of BSA, mean ± SD (range)” value is listed as 5.7 ± 8.6 (0–29) percentage of BSA in data set [3] (cohort 1, ages 12–17 yrs (n = 12), baseline 35.8 ± 11.3); 16.3 ± 14.5 (0–40) percentage of BSA in data set [3] (cohort 2, ages 6–11 yrs (n = 12), baseline 54.9 ± 19.3); 18.6 ± 18.1 (0–46) percentage of BSA in data set [3] (cohort 3, ages 2–5 yrs (n = 10), baseline 56.9 ± 23.0); 13.2 ± 14.7 (0–46) percentage of BSA in data set [3] (total (N = 34), baseline 48.7 ± 20.2). In addition, the “reduction of the mean percentage of skin with AD lesions” value in data set [3] (overall, as summarised in discussion) is given as ~ 75%.

One may read the Tmax as the time from dosing to the highest level. What is called AUC(0-t) is exposure summed from dosing to a finite time, without extrapolation to infinity. Read a low AUC(0-t) as low exposure. Usually Cmax stands for the maximum level reached in the sampled fluid or tissue.
